Source: US3959256A
Converted amounts (≈) assume the structure as drawn. Where two headings read alike, the source gives them in different places.

Experiments:
[1] = test system: Corynebacterium diphtheriae Type intermedius; experiment: Minimum inhibitory concentration, standard serial dilution method; type: cell-based; details: read-out: Minimum Inhibitory Concentrations
[2] = test system: Streptococcus faecalis ATCC 8043; experiment: as above; type: cell-based; details: Enterococcus faecalis, read-out: Minimum Inhibitory Concentrations
[3] = test system: Corynebacterium diphtheriae Type gravis; experiment: as above; type: cell-based; details: read-out: Minimum Inhibitory Concentrations
[4] = test system: Bacillus subtilis PCI 219; experiment: as above; type: cell-based; details: read-out: Minimum Inhibitory Concentrations
[5] = test system: Bacillus anthracis No.119; experiment: microbe, parasite or virus in culture; type: cell-based; details: NO.119, 24 h, read-out: Minimum Inhibitory Concentrations
[6] = test system: Diplococcus pneumoniae Type I; experiment: Minimum inhibitory concentration, standard serial dilution method; type: cell-based; details: Streptococcus pneumoniae, read-out: Minimum Inhibitory Concentrations
[7] = test system: Staphylococcus aureus Terajima; experiment: as above; type: cell-based; details: read-out: Minimum Inhibitory Concentrations
Staphylococcus aureus = experiment: Curative effect in therapeutic treatment of Staphylococcus aureus infections in mice; details: oral, immediately after intraperitoneal inoculation, 7th day, 10 mice per group
Sarcina lutea = experiment: Minimum inhibitory concentration, standard serial dilution method; type: cell-based; details: Micrococcus luteus, read-out: Minimum Inhibitory Concentrations
[8] = test system: Staphylococcus albus 1200A; experiment: as above; type: cell-based; details: read-out: Minimum Inhibitory Concentrations
[9] = test system: Streptococcus hemolyticus Cook; experiment: as above; type: cell-based; details: Streptococcus pyogenes, read-out: Minimum Inhibitory Concentrations
[10] = test system: Streptococcus pyogenes D-58; experiment: as above; type: cell-based; details: read-out: Minimum Inhibitory Concentrations
[11] = test system: Bacillus subtilis ATCC 6633; experiment: as above; type: cell-based; details: read-out: Minimum Inhibitory Concentrations
[12] = test system: Staphylococcus aureus Smith; experiment: as above; type: cell-based; details: read-out: Minimum Inhibitory Concentrations
[13] = test system: Staphylococcus aureus 209P; experiment: as above; type: cell-based; details: Brain Heart Infusion broth, 37°C, 24 hours, read-out: Minimum Inhibitory Concentrations
Description: (§1) The minimum inhibitory concentrations of these compounds to various microorganisms were determined according to a standard serial dilution method using Brain Heart Infusion broth as the incubation medium at 37°C, the estimation of the growth of the microorganisms being effected after 24 hours' incubation.

[14] = test system: Diplococcus pneumoniae Type III; experiment: as above; type: cell-based; details: Streptococcus pneumoniae, Brain Heart Infusion broth, 37°C, 24 hours, read-out: Minimum Inhibitory Concentrations
Description: as §1

[15] = test system: Streptococcus hemolyticus D-90; experiment: as above; type: cell-based; details: Streptococcus pyogenes, D90, Brain Heart Infusion broth, 37°C, 24 hours, read-out: Minimum Inhibitory Concentrations
Description: as §1

mice = experiment: Acute toxicity in mice, intraperitoneal; details: 3,000 mg/kg intraperitoneally; one week after dosing; 3 mice per group
[16] = Corynebacterium diphtheriae Type intermedius, Brain Heart Infusion broth, 37°C, 24 hours
[17] = Corynebacterium diphtheriae Type gravis, Brain Heart Infusion broth, 37°C, 24 hours
[18] = PCI219, Bacillus subtilis PCI 219, Brain Heart Infusion broth, 37°C, 24 hours
[19] = Diplococcus pneumoniae Type I, Brain Heart Infusion broth, 37°C, 24 hours
[20] = Staphylococcus aureus Terajima, Brain Heart Infusion broth, 37°C, 24 hours
[21] = Sarcina lutea, Brain Heart Infusion broth, 37°C, 24 hours
[22] = Streptococcus pyogenes, D58, 24 h
[23] = ATCC6633, Bacillus subtilis ATCC 6633, Brain Heart Infusion broth, 37°C, 24 hours
[24] = Corynebacterium diphtheriae, 24 h
[25] = Streptococcus hemolyticus Cook, Brain Heart Infusion broth, 37°C, 24 hours

SMILES | MIC [1, 16] [µg/mL] | MIC [3, 17] [µg/mL] | MIC [4, 18] [µg/mL] | MIC [5] [µg/mL] | MIC [6, 19] [µg/mL] | MIC [7, 20] [µg/mL] | Rate of Surviving Mice (in percentage) (Staphylococcus aureus; 100 mg/kg) [percentage] | Rate of Surviving Mice (in percentage) (Staphylococcus aureus; 200 mg/kg) [percentage] | Rate of Surviving Mice (in percentage) (Staphylococcus aureus; 400 mg/kg) [percentage] | MIC (Sarcina lutea; [21]) [µg/mL] | MIC [10, 22] [µg/mL] | MIC [11, 23] [µg/mL] | MIC ([12]; Staphylococcus aureus, 24 h) [µg/mL] | MIC [13] [µg/mL] | MIC [14] [µg/mL] | MIC [15] [µg/mL] | Rate of the sacrificed mice (average) (mice) | MIC ([2]; ATCC8043, 24 h) [µg/mL] | MIC ([8]; Staphylococcus, 1200A, 24 h) [µg/mL] | MIC [9, 25] [µg/mL] | other results
CCC(=O)OCOC1(C)CC(OC2C(C)OC(OC3C(CC=O)CC(C)C(OC(=O)CC)C=CC=CCC(C)OC(=O)CC(OC(=O)CC)C3OC)C(O)C2N(C)C)OC(C)C1OC(=O)CC (stereo not shown) [9-O-propionyl-3"-O-propionyloxymethyl-SF-837 substance] | 0.19 (≈ 0.199 µM) | 0.19 (≈ 0.199 µM) | 0.78 (≈ 0.816 µM) | 1.56 (≈ 1.63 µM) | 0.19 (≈ 0.199 µM) | 3.13 (≈ 3.27 µM) | 33 | 56 | 100 | 0.19 (≈ 0.199 µM) | 1.56 (≈ 1.63 µM) | 0.78 (≈ 0.816 µM) | 1.56 (≈ 1.63 µM) | 1.56 (≈ 1.63 µM) | 1.56 (≈ 1.63 µM) | 1.56 (≈ 1.63 µM) | 0/3 | – | – | – | MIC ([2]; ATCC8043, Streptococcus faecalis ATCC 8043, Brain Heart Infusion broth, 37°C, 24 hours): 3.13 µg/mL (≈ 3.27 µM); MIC ([8]; Staphylococcus albus 1200A, Brain Heart Infusion broth, 37°C, 24 hours): 3.13 µg/mL (≈ 3.27 µM); MIC ([9]; 24 h): 1.56 µg/mL (≈ 1.63 µM)
CCC(=O)OC1CC(=O)OC(C)CC=CC=CC(O)C(C)CC(CC=O)C(OC2OC(C)C(OC3CC(C)(O)C(OC(=O)CC)C(C)O3)C(N(C)C)C2O)C1OC (stereo not shown) [SF-837 (the free base), reference compound] | – | – | – | 0.78 (≈ 0.958 µM) | – | – | 0 | 45 | 67 | – | 0.09 (≈ 0.111 µM) | – | 0.19 (≈ 0.233 µM) | 0.78 (≈ 0.958 µM) | 0.04 (≈ 0.0491 µM) | 1.56 (≈ 1.92 µM) | 3/3 | 1.56 (≈ 1.92 µM) | 0.78 (≈ 0.958 µM) | – | MIC [1, 24]: 0.19 µg/mL (≈ 0.233 µM); MIC [3, 24]: 0.19 µg/mL (≈ 0.233 µM); MIC ([4]; Bacillus subtilis, PCI219, 24 h): 0.78 µg/mL (≈ 0.958 µM); MIC ([6]; 24 h): 0.04 µg/mL (≈ 0.0491 µM); MIC ([7]; Staphylococcus aureus, 24 h): 1.56 µg/mL (≈ 1.92 µM); MIC (Sarcina lutea; 24 h): 0.09 µg/mL (≈ 0.111 µM); MIC ([9]; 24 h): 0.09 µg/mL (≈ 0.111 µM); MIC ([11]; Bacillus subtilis, ATCC6633, 24 h): 1.56 µg/mL (≈ 1.92 µM)
CCC(=O)OC1C=CC=CCC(C)OC(=O)CC(OC(=O)CC)C(OC)C(OC2OC(C)C(OC3CC(C)(OCOC(C)=O)C(OC(=O)CC)C(C)O3)C(N(C)C)C2O)C(CC=O)CC1C (stereo not shown) [9-O-propionyl-3"-O-acetoxymethyl-SF-837, 9-O-propionyl-3"-O-acetoxymethyl-SF-837 substance] | 0.19 (≈ 0.202 µM) | 0.19 (≈ 0.202 µM) | 0.78 (≈ 0.828 µM) | 1.56 (≈ 1.66 µM) | 0.19 (≈ 0.202 µM) | 3.13 (≈ 3.32 µM) | 33 | 56 | 100 | 0.19 (≈ 0.202 µM) | – | 0.78 (≈ 0.828 µM) | – | 1.56 (≈ 1.66 µM) | 1.56 (≈ 1.66 µM) | 1.56 (≈ 1.66 µM) | 0/3 | 1.56 (≈ 1.66 µM) | 1.56 (≈ 1.66 µM) | 0.19 (≈ 0.202 µM) | MIC ([10]; D58, Streptococcus pyogenes D-58, Brain Heart Infusion broth, 37°C, 24 hours): 3.13 µg/mL (≈ 3.32 µM); MIC ([12]; Staphylococcus aureus Smith, Brain Heart Infusion broth, 37°C, 24 hours): 3.13 µg/mL (≈ 3.32 µM)
CCC(=O)OCOC1(C)CC(OC2C(C)OC(OC3C(CC=O)CC(C)C(OC(C)=O)C=CC=CCC(C)OC(=O)CC(OC(=O)CC)C3OC)C(O)C2N(C)C)OC(C)C1OC(=O)CC (stereo not shown) [9-O-acetyl-3"-O-propionyloxymethyl-SF-837 substance] | 0.19 (≈ 0.202 µM) | 0.19 (≈ 0.202 µM) | 0.39 (≈ 0.414 µM) | 1.56 (≈ 1.66 µM) | 0.19 (≈ 0.202 µM) | 3.13 (≈ 3.32 µM) | 67 | 100 | 100 | 0.19 (≈ 0.202 µM) | 1.56 (≈ 1.66 µM) | 0.78 (≈ 0.828 µM) | 1.56 (≈ 1.66 µM) | 1.56 (≈ 1.66 µM) | 1.56 (≈ 1.66 µM) | 1.56 (≈ 1.66 µM) | 0/3 | 1.56 (≈ 1.66 µM) | 1.56 (≈ 1.66 µM) | 0.19 (≈ 0.202 µM) | –
CCC(=O)OC1CC(=O)OC(C)CC=CC=CC(OC(C)=O)C(C)CC(CC=O)C(OC2OC(C)C(OC3CC(C)(OCOC(C)=O)C(OC(=O)CC)C(C)O3)C(N(C)C)C2O)C1OC (stereo not shown) [9-O-acetyl-3"-O-acetoxymethyl-SF-837, 9-O-acetyl-3"-O-acetoxymethyl-SF-837 substance] | 0.19 (≈ 0.205 µM) | 0.19 (≈ 0.205 µM) | 0.78 (≈ 0.84 µM) | 1.56 (≈ 1.68 µM) | 0.19 (≈ 0.205 µM) | 3.13 (≈ 3.37 µM) | – | – | – | 0.19 (≈ 0.205 µM) | 1.56 (≈ 1.68 µM) | 0.78 (≈ 0.84 µM) | 1.56 (≈ 1.68 µM) | 1.56 (≈ 1.68 µM) | 1.56 (≈ 1.68 µM) | 1.56 (≈ 1.68 µM) | 0/3 | 1.56 (≈ 1.68 µM) | 1.56 (≈ 1.68 µM) | 0.19 (≈ 0.205 µM) | –
